Assay results reported in doi:10.1101/2023.03.27.534333v1 (biorxiv, 2023).

Assays:
[1] = biological target: T1, full-length METTL16 (Homo sapiens, UniProt Q86W50); assay: m6A antibody-based ELISA; assay type: biochemical
T1 sequence (Q86W50 1-562): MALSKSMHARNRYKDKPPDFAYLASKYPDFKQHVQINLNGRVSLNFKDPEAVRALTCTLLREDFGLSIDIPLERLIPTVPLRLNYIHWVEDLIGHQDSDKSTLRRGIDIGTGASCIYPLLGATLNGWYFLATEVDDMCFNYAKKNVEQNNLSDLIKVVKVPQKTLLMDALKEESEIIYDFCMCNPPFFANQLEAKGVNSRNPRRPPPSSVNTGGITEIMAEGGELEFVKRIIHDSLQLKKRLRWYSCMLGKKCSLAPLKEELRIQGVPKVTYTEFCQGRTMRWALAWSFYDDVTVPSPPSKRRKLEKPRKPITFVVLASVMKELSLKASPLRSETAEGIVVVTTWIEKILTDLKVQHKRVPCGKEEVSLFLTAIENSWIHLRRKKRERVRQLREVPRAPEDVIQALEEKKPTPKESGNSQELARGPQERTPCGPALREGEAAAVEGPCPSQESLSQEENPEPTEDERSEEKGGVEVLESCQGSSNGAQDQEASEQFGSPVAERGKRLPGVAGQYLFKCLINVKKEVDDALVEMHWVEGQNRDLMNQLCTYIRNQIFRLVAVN

[2] = biological target: T2, METTL16 MTD (residues 1-291) (Homo sapiens, UniProt Q86W50); assay: microscale thermophoresis, His-tag RED-tris-NTA labelled protein; assay type: binding
T2 sequence (Q86W50 1-291): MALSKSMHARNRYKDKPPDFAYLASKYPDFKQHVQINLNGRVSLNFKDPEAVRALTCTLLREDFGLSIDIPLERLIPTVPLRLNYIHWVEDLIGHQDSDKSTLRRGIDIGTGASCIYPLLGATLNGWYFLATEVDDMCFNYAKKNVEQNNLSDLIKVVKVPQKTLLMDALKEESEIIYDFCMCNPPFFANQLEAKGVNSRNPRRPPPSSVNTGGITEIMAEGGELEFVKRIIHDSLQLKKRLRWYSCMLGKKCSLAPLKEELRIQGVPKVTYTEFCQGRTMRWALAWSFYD

Row | SMILES | IC50 [1] [nM] | Kd [2] [nM]
1 | C/C(=N\N=C(/N)S)c1ccccc1 [compound 1, [(E)-(1-phenylethylidene)amino]thiourea] | 25.8 ± 17.2 | 3310 ± 610
2 | C/C(=N\NC(N)=S)c1ccc(F)cc1 [compound 2, [(E)-[1-(4-fluorophenyl)ethylidene]amino]thiourea] | 60.9 ± 2.75 | 2840 ± 940
